Tests used:
Format in all cases: cell-based
[1] = test system: fungi; test: Antifungal activity (general statement); conditions: noted by Applicants, no test described
Excerpt: Applicants envision that the present invention is also useful for providing antifungal compounds and organisms engineered to express antifungal compounds. Preferably, one would measure the antifungal properties of a compound in the manner of N. Lomovskaya, et al., Microbiology 143:875-883, 1997. Measurement of inhibition of yeast growth can be found in R. Ikeura, et al., J. Antibiotics 41:1148, 1988. The same general methods could be used for all fungi. Both of these references are hereby incorporated by reference.

[2] = test system: A. nidulans strains WMH1739 and WMH1740 (WMH1738 transformed with pWHM1263); test: Lovastatin resistance test: spore suspension streaked on solid AMM plates containing lovastatin
Experimental: (§1) This strain WMH1738 was transformed to hygromycin B resistance with pWHM1263. Transformant colonies were screened for lovastatin resistance and for the production of new metabolites as described below and two strains WMH1739 and WMH1740 were chosen for further analysis. […] This was analyzed by streaking 10 μl of a spore suspension on solid AMM plates containing lovastatin at 0, 0.1, 0.5, 1, 5, 10, 50 and 100 μg/ml and incubating at 37° C. Strains WMH1739 and WMH1740 were compared to strains WMH1741 and WMH1742 which were derivatives of WMH1738 transformed to hygromycin resistance with AN26. […] The two lovastatin resistant strains were fermented in lovastatin-producing conditions using fermentation method B and extracts were analyzed for lovastatin related metabolites as described below. […] One compound that was common to both comigrated with monacolin J on TLC and HPLC analysis by the methods described below. Semi-preparative HPLC was used to partially purify some of this compound, which was then analyzed by HPLC—MS. It had the same mass and fragmentation pattern as authentic monacolin J. The other compound, found in only one of the strains, comigrated with monacolin L on TLC and HPLC.

[3] = test system: A. nidulans strains WMH1741 and WMH1742 (WMH1738 transformed with AN26); test: as above; conditions: 37° C.
Experimental: as §1

C[C@@H]1CC[C@@H]2[C@@H](CC[C@@H]3C[C@@H](O)CC(=O)O3)[C@@H](C)C=C[C@H]2C1 [dihydromonocolin L, dihydromonacolin L]
antifungal activity [1]: varying degrees of antifungal activity

CC[C@H](C)C(=O)O[C@H]1C[C@@H](C)C=C2C=C[C@H](C)[C@H](CC[C@@H]3C[C@@H](O)CC(=O)O3)[C@H]21 [lovastatin]
inhibition of growth ([2]; strains WMH1739 and WMH1740, lovastatin at 0, 0.1, 0.5, 1, 5, 10, 50 and 100 μg/ml on solid AMM plates, 37° C.): no inhibition of growth | lovastatin concentration to which strains were significantly resistant ([2]; strains WMH1739 and WMH1740 compared with the host strain, solid media): up to 100 μg/ml | inhibition of growth ([3]; lovastatin 5 μg/ml on solid AMM plates): slight inhibition | inhibition of growth ([3]; lovastatin 50 μg/ml on solid AMM plates): almost complete growth inhibition | antifungal activity [1]: varying degrees of antifungal activity

C[C@H]1C=C2C=C[C@H](C)[C@H](CC[C@@H]3C[C@@H](O)CC(=O)O3)[C@H]2[C@@H](O)C1 [monocolin J, monacolin J]
antifungal activity [1]: varying degrees of antifungal activity

C[C@H]1C=C2C=C[C@H](C)[C@H](CC[C@@H]3C[C@@H](O)CC(=O)O3)[C@H]2CC1 [monocolin L, monacolin L]
antifungal activity [1]: varying degrees of antifungal activity

Source: patent US6943017B2, “Method of producing antihypercholesterolemic agents” (Wisconsin Alumni Research Foundation, priority 1998, dated 2005)
